PubChem BioAssay (NCI)
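All cell lines were grown in 96-well plates and treated with compound for 48 hours. Definition used: TGI = concentration required for complete inhibition of growth.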

Tests used:
Test in all cases: NCI tumour cell line growth inhibition, 48 h
SF-268 CNS = system: SF-268 CNS
NCI-H23 lung = system: NCI-H23 lung
CCRF-CEM leukemia = system: CCRF-CEM leukemia
NCI-H522 lung = system: NCI-H522 lung
PC-3 prostate = system: PC-3 prostate
MDA-MB-231 breast = system: MDA-MB-231 breast
HS 578T breast = system: HS 578T breast
OVCAR-8 ovarian = system: OVCAR-8 ovarian
SN12C renal = system: SN12C renal
SK-MEL-28 melanoma = system: SK-MEL-28 melanoma
T-47D breast = system: T-47D breast
HL-60(TB) leukemia = system: HL-60(TB) leukemia
ACHN renal = system: ACHN renal
M14 melanoma = system: M14 melanoma
A549 NSCLC = system: A549 NSCLC
SK-OV-3 ovarian = system: SK-OV-3 ovarian
UO-31 renal = system: UO-31 renal
HCT-116 colon = system: HCT-116 colon
NCI-H460 lung = system: NCI-H460 lung
OVCAR-3 ovarian = system: OVCAR-3 ovarian
EKVX NSCLC = system: EKVX NSCLC
NCI-H226 lung = system: NCI-H226 lung
KM12 colon = system: KM12 colon
MCF7 breast = system: MCF7 breast
TK-10 renal = system: TK-10 renal
COLO 205 colon = system: COLO 205 colon
BT-549 breast = system: BT-549 breast
MDA-N = system: MDA-N
SF-539 CNS = system: SF-539 CNS
HCT-15 colon = system: HCT-15 colon
CAKI-1 renal = system: CAKI-1 renal
HT29 colon = system: HT29 colon
MOLT-4 leukemia = system: MOLT-4 leukemia
U251 CNS = system: U251 CNS
SF-295 CNS = system: SF-295 CNS
SNB-75 CNS = system: SNB-75 CNS
HOP-92 NSCLC = system: HOP-92 NSCLC
SK-MEL-5 melanoma = system: SK-MEL-5 melanoma
LOX IMVI melanoma = system: LOX IMVI melanoma
OVCAR-5 ovarian = system: OVCAR-5 ovarian
IGROV1 ovarian = system: IGROV1 ovarian
MALME-3M melanoma = system: MALME-3M melanoma
RPMI-8226 leukemia = system: RPMI-8226 leukemia
SW-620 colon = system: SW-620 colon
DU-145 prostate = system: DU-145 prostate
MDA-MB-435 = system: MDA-MB-435
HCC-2998 colon = system: HCC-2998 colon
NCI/ADR-RES ovarian = system: NCI/ADR-RES ovarian
UACC-62 melanoma = system: UACC-62 melanoma
SK-MEL-2 melanoma = system: SK-MEL-2 melanoma
SNB-19 CNS = system: SNB-19 CNS
UACC-257 melanoma = system: UACC-257 melanoma
786-0 renal = system: 786-0 renal
OVCAR-4 ovarian = system: OVCAR-4 ovarian
A498 renal = system: A498 renal
HOP-62 NSCLC = system: HOP-62 NSCLC
RXF 393 renal = system: RXF 393 renal

Question: Which results are given for CN[C@H]1CC[C@]23C[C@]24CC[C@]2(C)[C@@H]([C@H](C)N(C)C)CC[C@@]2(C)[C@@H]4CC[C@H]3C1(C)C?
Answer: TGI (SF-268 CNS): 31.5 µM; TGI (NCI-H23 lung): 35.6 µM; TGI (CCRF-CEM leukemia): 98.8 µM; TGI (NCI-H522 lung): 34.1 µM; TGI (PC-3 prostate): 29 µM; TGI (MDA-MB-231 breast): 38.2 µM; TGI (HS 578T breast): 48 µM; TGI (OVCAR-8 ovarian): 32.9 µM; TGI (SN12C renal): 29.1 µM; TGI (SK-MEL-28 melanoma): 25.8 µM; TGI (T-47D breast): 35.2 µM; TGI (HL-60(TB) leukemia): 36.3 µM; TGI (ACHN renal): 31 µM; TGI (M14 melanoma): 37.2 µM; TGI (A549 NSCLC): 39.2 µM; TGI (SK-OV-3 ovarian): 38.2 µM; TGI (UO-31 renal): 24.5 µM; TGI (HCT-116 colon): 24 µM; TGI (NCI-H460 lung): 37.2 µM; TGI (OVCAR-3 ovarian): 33.6 µM; TGI (EKVX NSCLC): 37.9 µM; TGI (NCI-H226 lung): 34.9 µM; TGI (KM12 colon): 31.8 µM; TGI (MCF7 breast): 36.2 µM; TGI (TK-10 renal): 39.3 µM; TGI (COLO 205 colon): 25.2 µM; TGI (BT-549 breast): 31.9 µM; TGI (MDA-N): 29.2 µM; TGI (SF-539 CNS): 26.7 µM; TGI (HCT-15 colon): 25.8 µM; TGI (CAKI-1 renal): 45.9 µM; TGI (HT29 colon): 14.2 µM; TGI (MOLT-4 leukemia): 60.1 µM; TGI (U251 CNS): 27.6 µM; TGI (SF-295 CNS): 31.2 µM; TGI (SNB-75 CNS): 33.2 µM; TGI (HOP-92 NSCLC): 26 µM; TGI (SK-MEL-5 melanoma): 29.4 µM; TGI (LOX IMVI melanoma): 18.9 µM; TGI (OVCAR-5 ovarian): 60.7 µM; TGI (IGROV1 ovarian): 35.1 µM; TGI (MALME-3M melanoma): 32.6 µM; TGI (RPMI-8226 leukemia): 31.3 µM; TGI (SW-620 colon): 32.5 µM; TGI (DU-145 prostate): 28.4 µM; TGI (MDA-MB-435): 29.8 µM; TGI (HCC-2998 colon): 28.7 µM; TGI (NCI/ADR-RES ovarian): 36.6 µM; TGI (UACC-62 melanoma): 32.1 µM; TGI (SK-MEL-2 melanoma): 40 µM; TGI (SNB-19 CNS): 43.3 µM; TGI (UACC-257 melanoma): 32.8 µM; TGI (786-0 renal): 19.8 µM; TGI (OVCAR-4 ovarian): 53.7 µM; TGI (A498 renal): 35.4 µM

Question: What does the source list for OC[C@@H](O)[C@H](O)[C@@H](O)/C=N/Nc1ccc(Cl)nn1?
Answer: TGI (SF-268 CNS): > 100 µM; TGI (NCI-H23 lung): > 100 µM; TGI (CCRF-CEM leukemia): > 100 µM; TGI (NCI-H522 lung): > 100 µM; TGI (PC-3 prostate): > 100 µM; TGI (MDA-MB-231 breast): > 100 µM; TGI (HS 578T breast): > 100 µM; TGI (OVCAR-8 ovarian): > 100 µM; TGI (SN12C renal): > 100 µM; TGI (SK-MEL-28 melanoma): > 100 µM; TGI (T-47D breast): > 100 µM; TGI (HL-60(TB) leukemia): > 100 µM; TGI (ACHN renal): > 100 µM; TGI (HOP-62 NSCLC): > 100 µM; TGI (M14 melanoma): > 100 µM; TGI (A549 NSCLC): > 100 µM; TGI (SK-OV-3 ovarian): > 100 µM; TGI (HCT-116 colon): > 100 µM; TGI (NCI-H460 lung): > 100 µM; TGI (OVCAR-3 ovarian): > 100 µM; TGI (EKVX NSCLC): > 100 µM; TGI (KM12 colon): > 100 µM; TGI (MCF7 breast): > 100 µM; TGI (TK-10 renal): > 100 µM; TGI (COLO 205 colon): > 100 µM; TGI (BT-549 breast): > 100 µM; TGI (MDA-N): > 100 µM; TGI (SF-539 CNS): > 100 µM; TGI (HCT-15 colon): > 100 µM; TGI (CAKI-1 renal): > 100 µM; TGI (HT29 colon): > 100 µM; TGI (MOLT-4 leukemia): > 100 µM; TGI (U251 CNS): > 100 µM; TGI (SF-295 CNS): > 100 µM; TGI (HOP-92 NSCLC): > 100 µM; TGI (RXF 393 renal): > 100 µM; TGI (SK-MEL-5 melanoma): > 100 µM; TGI (LOX IMVI melanoma): > 100 µM; TGI (OVCAR-5 ovarian): > 100 µM; TGI (IGROV1 ovarian): > 100 µM; TGI (MALME-3M melanoma): > 100 µM; TGI (RPMI-8226 leukemia): > 100 µM; TGI (SW-620 colon): > 100 µM; TGI (DU-145 prostate): > 100 µM; TGI (MDA-MB-435): > 100 µM; TGI (HCC-2998 colon): > 100 µM; TGI (NCI/ADR-RES ovarian): > 100 µM; TGI (UACC-62 melanoma): > 100 µM; TGI (SK-MEL-2 melanoma): > 100 µM; TGI (SNB-19 CNS): > 100 µM; TGI (UACC-257 melanoma): > 100 µM; TGI (786-0 renal): > 100 µM; TGI (OVCAR-4 ovarian): > 100 µM; TGI (A498 renal): > 100 µM
